The text below walks through data of PubChem BioAssay (NCI).

Each structure is given as a SMILES string.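 48-hour exposure; five concentrations; linearly interpolated endpoints. TGI: total growth inhibition.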

Some test systems named below: SF-539 CNS; UO-31 renal; PC-3 prostate; SK-MEL-28 melanoma; UACC-257 melanoma; ACHN renal; CAKI-1 renal; COLO 205 colon; NCI-H23 lung; CCRF-CEM leukemia; NCI-H226 lung; RXF 393 renal.
Experiment in all cases: NCI-60 cell line screen, 48 h

In the case of `C=C1C(=O)OC2/C=C(\C)C(O)CC(O)C(C)(O)CC(OC(=O)/C(C)=C/C)C12` (configuration not stated), the TGI with SF-539 CNS, in the test on UO-31 renal, in the test on PC-3 prostate, in the test with SK-MEL-28 melanoma, in the test with UACC-257 melanoma and in the test with ACHN renal was over 100 µM each time. The TGI was over 100 µM with CAKI-1 renal; over 100 µM with COLO 205 colon; over 100 µM with NCI-H23 lung; over 82.8 µM in the test with CCRF-CEM leukemia; over 100 µM in the test on NCI-H226 lung; over 100 µM in the test with RXF 393 renal.

Consider `C=C1CC/C=C(/C(=O)O)CC[C@H]2[C@@H]1CC2(C)C`, for which the TGI in the test with SF-539 CNS, in the test on UO-31 renal, in the test with PC-3 prostate, with SK-MEL-28 melanoma, in the test with UACC-257 melanoma and in the test with ACHN renal was over 100 µM each time. The TGI with CAKI-1 renal, in the test on COLO 205 colon, with NCI-H23 lung, in the test on CCRF-CEM leukemia, in the test on NCI-H226 lung and with RXF 393 renal was over 100 µM each time.

Consider `CC(C)(C)NC(NC(C)(C)C)=C(C(Cl)=C(Cl)Cl)[N+](=O)[O-]`, for which the TGI in the test on SF-539 CNS, in the test on UO-31 renal, in the test on PC-3 prostate, with SK-MEL-28 melanoma, in the test on UACC-257 melanoma and in the test on ACHN renal was over 100 µM each time. In addition, the TGI in the test on CAKI-1 renal, with COLO 205 colon, with NCI-H23 lung, with CCRF-CEM leukemia, with NCI-H226 lung and with RXF 393 renal was over 100 µM throughout.

With `C/C=C(/C)C(=O)O[C@@H]1c2c(C)coc2C[C@H]2CC[C@H](O)[C@H](C)[C@]21C`, the TGI in the test with SF-539 CNS is 87 µM; in the test on UO-31 renal it was over 100 µM; in the test on PC-3 prostate, over 100 µM; in the test with SK-MEL-28 melanoma it was over 100 µM; with UACC-257 melanoma, over 100 µM; in the test on ACHN renal it was over 100 µM. Further, the TGI with CAKI-1 renal is over 100 µM; in the test with COLO 205 colon, over 100 µM; in the test on NCI-H23 lung it was over 100 µM; in the test with CCRF-CEM leukemia it was over 100 µM; in the test on NCI-H226 lung, over 100 µM; in the test on RXF 393 renal, 78.2 µM.

On to `NC1CC2C3CCC2C1C3=O` (configuration not stated), for which the TGI in the test with SF-539 CNS, in the test on UO-31 renal, in the test with PC-3 prostate, in the test on SK-MEL-28 melanoma, in the test on UACC-257 melanoma and in the test with ACHN renal was over 100 µM throughout. In addition, the TGI in the test on CAKI-1 renal, in the test on COLO 205 colon, with NCI-H23 lung, in the test with CCRF-CEM leukemia, in the test with NCI-H226 lung and in the test with RXF 393 renal was over 100 µM in each case.

Turning to `O=[N+]([O-])CC(SCc1ccccc1)c1ccc2c(c1)OCO2` (configuration not stated), the TGI in the test with SF-539 CNS came out at 10.9 µM; with UO-31 renal, 22.2 µM; with PC-3 prostate, 33.1 µM; with SK-MEL-28 melanoma, 17 µM; in the test with UACC-257 melanoma it was 16 µM; with ACHN renal it was 28.3 µM. For the same compound, the TGI in the test on CAKI-1 renal amounted to 28.6 µM; in the test on COLO 205 colon it was 21.1 µM; with NCI-H23 lung it was 17.5 µM; in the test on CCRF-CEM leukemia it was 8.74 µM; with NCI-H226 lung, 23.2 µM; with RXF 393 renal, 3.63 µM.

With `CCCCCCCCCCCCCCCCCCNc1ccn(C2OC(COP(=O)(O)O)C(O)C2O)c(=O)n1` (configuration not stated), the TGI in the test on SF-539 CNS, in the test with UO-31 renal, in the test on PC-3 prostate, in the test on SK-MEL-28 melanoma, with UACC-257 melanoma and in the test with ACHN renal was over 100 µM each time. For the same compound, the TGI in the test with CAKI-1 renal, in the test on COLO 205 colon, in the test with NCI-H23 lung, with CCRF-CEM leukemia, with NCI-H226 lung and in the test on RXF 393 renal was over 100 µM throughout.

`FC(F)(F)c1ccc2c(c1)nc(Cc1ccccc1)n2C[C@@H]1CCCN2CCCCC12` (some centres not stated): the TGI was determined as 35.6 µM in the test with SF-539 CNS; 0.744 µM in the test with UO-31 renal; 28.5 µM in the test with PC-3 prostate; 32.3 µM with SK-MEL-28 melanoma; 28.9 µM in the test on UACC-257 melanoma; 26.5 µM in the test with ACHN renal. In addition, the TGI in the test with CAKI-1 renal is 31.1 µM; in the test with COLO 205 colon, 31.2 µM; with NCI-H23 lung, 30.8 µM; in the test on CCRF-CEM leukemia it was over 54.8 µM; in the test on NCI-H226 lung it was 40.4 µM; in the test with RXF 393 renal, 23 µM.

On to `COC(=O)c1ccc2n1C1CC3CC(CC2C3)C1`, for which the TGI in the test on SF-539 CNS, in the test on UO-31 renal, in the test with PC-3 prostate, with SK-MEL-28 melanoma, in the test with UACC-257 melanoma and with ACHN renal was over 100 µM throughout. The TGI in the test with CAKI-1 renal was over 100 µM; with COLO 205 colon, over 100 µM; in the test with NCI-H23 lung, over 100 µM; in the test with CCRF-CEM leukemia, over 100 µM; in the test with NCI-H226 lung, over 100 µM; in the test on RXF 393 renal, 96.6 µM.

As to `NC(=O)c1n[nH]n(-c2ccccc2)c1=O`, the TGI in the test with SF-539 CNS, in the test on UO-31 renal, in the test on PC-3 prostate, in the test on SK-MEL-28 melanoma, in the test with UACC-257 melanoma and in the test on ACHN renal was over 100 µM throughout. Also, the TGI in the test with CAKI-1 renal, in the test on COLO 205 colon, with NCI-H23 lung, in the test with CCRF-CEM leukemia, in the test with NCI-H226 lung and with RXF 393 renal was over 100 µM throughout.

As for `Cc1ccc(C(=O)CC(Cl)=C(Cl)Cl)cc1`, the TGI in the test with SF-539 CNS, in the test with UO-31 renal, with PC-3 prostate, in the test on SK-MEL-28 melanoma, in the test with UACC-257 melanoma and in the test on ACHN renal was over 100 µM throughout. Further, the TGI is over 100 µM with CAKI-1 renal; over 100 µM in the test with COLO 205 colon; over 100 µM in the test on NCI-H23 lung; 52.1 µM in the test with CCRF-CEM leukemia; over 100 µM in the test with NCI-H226 lung; over 100 µM in the test with RXF 393 renal.
